From patent US12465614B2, “Budesonide 21-phosphate salts and pharmaceutical compositions containing the same” (GENETIC S.P.A., priority 2020, dated 2025)
“Also recorded” adds a separate entry of the source.

Tests used:
Assay type in all cases: in vivo
[1] = test system: mice with OVA-induced allergic asthma; assay: Lung hyperreactivity/Penh function, whole body plethysmography, intra-nasal FB, F, B (Experimental Groups II); conditions: i.n. daily 2 weeks, all tested doses: FB 0.3, 1.0, 3.0 nmol/animal, vs untreated OVA group
OVA-sensitized mice [2] = assay: Bronchial relaxation to salbutamol, isolated bronchi of OVA-sensitized mice (Experimental Groups I); conditions: 1 mg/Kg i.p.; rings precontracted with carbachol; vs OVA group; FIG. 10B
[3] = test system: mice with OVA-induced allergic asthma; assay: Circulating leukocyte cell counts (Experimental Groups II)
Description: (§1) Male Balb/c SPF mice (25*2 g, 6-week-old) were purchased from the animal house facilities at the São Paulo School of Medicine (Federal University of São Paulo, Brazil). They were group-housed in a temperature-controlled room at 22° C. with a 12/12-hour light/dark cycle and allowed free access to food and water. The study is in agreement with the Ethical Principles for Animal Research established by the Brazilian College for Animal Experimentation (COBEA). According to the internal laboratory rules, euthanasia is performed if severe distress related to the test agents developed during the experiment. […] The compounds were dissolved in DMSO (Sigma Chemical Co., St. Louis, MO) at concentrations at which the determined dose per animal results from the intraperitoneal administration of 100 μl of solution (1:10 DMSO) and intra-nasal (i.n.) administration of 10 μl/animal (5 μl/nostril) of the solutions. Mice were sensitized with two subcutaneous injections of 0.4 ml of OVA/Al(OH)3, with an interval of 7 days (Sham animals received the Al(OH)3 suspension in PBS with no OVA). Seven days after the second sensitization (i.e., 3rd week), the animals were nebulized twice a week with the 1% OVA solution (Sham and untreated OVA groups were nebulized with PBS) during 20 minutes for the next 2 weeks. Sixty minutes before the challenges (OVA nebulization) and daily during the next 4 weeks, mice were intra-nasally treated (10 μl/animal as 5 μl/nostril) with the respective compounds/vehicle. After Penh evaluation, the mice were anesthetized with inhaled isofluorane (5% v/v in O2) and blood samples were collected from the descending abdominal aorta. The mice were then euthanized by exsanguination (blood samples were collected from each animal for leukocyte cell counting), and bronchoalveolar lavage (BAL) was performed by exposing and cannulating the trachea with a polyethylene tube (1 mm outer diameter) connected to a syringe. The lungs were washed by flushing 300 μL of heparin-containing PBS solution (20 Ul/mL). The retrieved BAL lavage aliquots were obtained, and the same procedure was repeated four additional times. The samples were submitted to centrifugation (1000 g for 10 min) and the cell pellet was resuspended in 200 μL of PBS solution. Total cell counts were determined using a Neubauer chamber, and differential counting was carried out in cytospin (Fanem Mod 2400; São Paulo, Brazil) preparations stained with May-Grünwald dye. Leukocytes were classified based on normal morphological criteria.

OVA-sensitized mice [4] = conditions: mouse, in vivo
IgE = assay: Plasma IgE levels in OVA-sensitized mice, ELISA (Experimental Groups I); conditions: 1 mg/Kg i.p.; vs OVA group; FIG. 10 panel C
Description: Female Balb/c (8-week-old, Charles River, Calco, Italy) were housed in the animal care facility of the Department of Pharmacy of the University of Naples, Italy in a controlled environment (temperature 21±2° C. and humidity 60±10%) and provided with standard rodent chow and water. All animals were allowed to acclimate for four days prior to experiments and were subjected to 12 h light−12 h dark schedule. Experiments were conducted during the light phase. The experimental procedures were approved by the Italian Ministry according to International and National law and policies (EU Directive 2010/63/EU and Italian DL 26/2014 for animal experiments). […] The compounds were dissolved in DMSO (Sigma Chemical Co., St. Louis, MO) at concentrations at which the determined dose per animal results from the intraperitoneal administration of 100 μl of solution (1:10 DMSO) and intra-nasal (i.n.) administration of 10 μl/animal (5 μl/nostril) of the solutions. […] Plasma levels of IgE were measured as index of sensitization. […] Total IgE levels were measured by means of ELISA using matched antibody pairs (BD Biosciences Pharmingen San Jose, CA).

[5] = test system: mice with OVA-induced allergic asthma; assay: BAL fluid cell counts (Experimental Groups II); conditions: for total leukocytes in BAL fluid: vs untreated OVA group
Description: as §1

[6] = i.n., all treatments: FB 0.3, 1.0, 3.0 nmol/animal, F and B 3.0 nmol/animal

| Compound | area under the Penh-metacholine concentration curve (AUC) ([1]; B 3.0 nmol/animal) | Penh maximal response Emax to inhaled metacholine ([1]; F and B 3.0 nmol/animal) | bronchial relaxation to salbutamol (OVA-sensitized mice [2]) | circulating macrophages ([3]; 0.3 nmol/animal i.n.) | total leukocytes in blood samples ([3]; 3 nmol/animal i.n., vs untreated OVA group) | circulating lymphocytes ([3]; 3 nmol/day i.n., vs untreated allergic animals) | circulating eosinophils vs control Sham animals ([3]; highest dose (3 nmol/animal i.n.)) | circulating macrophages ([3]; i.n., FB all tested doses (0.3, 1.0, 3.0 nmol/animal), B and F 3 nmol/animal) | circulating eosinophils [3, 6] | bronchial hyperreactivity (increased response of isolated bronchi to carbachol) (OVA-sensitized mice [4]) | OVA induced increase of IgE plasma levels (IgE) | total leukocytes in BAL fluid ([5]; 0.3 nmol/animal i.n.) | OVA-induced increase of BAL macrophages ([5]; 3 nmol/animal i.n.) | total leukocytes in BAL fluid ([5]; 3 nmol/animal i.n.) | eosinophils in BAL samples [5, 6] |
| --- | --- | --- | --- | --- | --- | --- | --- | --- | --- | --- | --- | --- | --- | --- | --- |
| Budesonide 21-phosphate formoterol salt [FB] | significantly reduced Penh at all the MCh doses tested; also recorded: abolished | Significant reduction of the maximal response Emax; also recorded: abolished | significantly increased bronchial relaxation | potent lowering effect | significantly reduced; also recorded: almost abolished | lower number of circulating cells than the untreated allergic animals | even lower than in the control Sham animals | significantly reduced the number of macrophages; also recorded: reduced the number of these cells to values lower than those observed in the control animals | decreased by FB treatment at all the tested doses | Significant reduction of the bronchial hyperreactivity | significantly reduced OVA induced increase of IgE plasma levels | significantly reduced | abolished the OVA-induced increase of BAL macrophages | significantly reduced | significantly controlled |
| COc1ccc(CC(C)NCC(O)c2ccc(O)c(NC=O)c2)cc1 (stereo not shown) [F, N-[2-hydroxy-5-[1-hydroxy-2-[[2-(p-methoxyphenyl)-2-propy]-amino]-ethyl]-phenyl]-formamide, reference compound] |  |  | did not ameliorate the lack of bronchial response to salbutamol |  |  |  |  |  |  |  |  |  |  |  |  |
